16 molecules from patent US20140206681A1, “BTK INHIBITORS” (priority 2013, published 2014) can be followed below.

For assay [1], the target named is T1, BTK enzyme (recombinant full-length BTK, hBTK) (Homo sapiens, UniProt Q06187).
T1 construct: recombinant protein from baculovirus-transfected Sf9 cells: full-length BTK, 6HIS-tag cleaved; 6HIS (cleaved yes); made in house; host or cells: baculovirus-transfected Sf9 cells
Put plainly: BTK enzyme activity assay, LANCE TR-FRET. It counts as biochemical. The settings on record: 50 pM hBTK, 2 μM biotin-A5-peptide, 25 μM ATP; 60 min compound & enzyme incubation; read-out: IC50 BTK activity value.

The next assay relates to HeLa cells. Put plainly: [3H]Adenosine uptake functional cellular assay. The settings on record: Homo sapiens, HeLa, accumulation of [3H]adenosine into HeLa cells; compound range 10 μM to […]; read-out: Adenosine uptake inhibition IC50. It counts as cell-based. As for the experimental part: Compounds are also screened in an adenosine uptake functional cellular assay using the protocol described below. The adenosine uptake inhibition assay may be used to identify compounds with the potential for a negative cardiovascular side effect.
Adenosine uptake activity was determined by monitoring the accumulation of tritiated adenosine into HeLa cells (ATCC catalog # CCL-2) using a PMT-based radiometric detection instrument. […] These cells were incubated overnight at 37° C. in a humidified atmosphere with 5% (v/v) CO2. After this time the growth medium was removed and replaced with 40 μL assay medium comprising: Hanks balanced salts solution (HBSS; Thermo Fisher Catalog # SH30268.01)+5% (v/v) FBS. […] 40 μL of compound in the assay medium was dispensed into individual wells of the Cytostar-T plates and the plates were incubated for 30 minutes under ambient laboratory conditions. Following this incubation, 20 μL of 500 nM [^3H]adenosine (American Radiolabeled Chemicals Inc. Catalog # ART0287) was added in the assay medium and incubated for a further 60 minutes under ambient laboratory conditions. The amount of radiolabel accumulation was then determined using a Perkin Elmer Topcount NXT microplate reader. In brief, HeLa cells adhere to the bottom of the Cytostar-T plate, uptake of [^3H]adenosine into these cells brings the radiolabel into sufficient proximity to excite the scintillant in the base of the plates. These events are captured by single PMT, time-resolved coincidence counting. IC50 values were determined by 4 parameter robust fit of counts per second values vs. (Log10) compound concentrations.

Some results are limits rather than exact numbers.

T1 sequence (Q06187 whole entry): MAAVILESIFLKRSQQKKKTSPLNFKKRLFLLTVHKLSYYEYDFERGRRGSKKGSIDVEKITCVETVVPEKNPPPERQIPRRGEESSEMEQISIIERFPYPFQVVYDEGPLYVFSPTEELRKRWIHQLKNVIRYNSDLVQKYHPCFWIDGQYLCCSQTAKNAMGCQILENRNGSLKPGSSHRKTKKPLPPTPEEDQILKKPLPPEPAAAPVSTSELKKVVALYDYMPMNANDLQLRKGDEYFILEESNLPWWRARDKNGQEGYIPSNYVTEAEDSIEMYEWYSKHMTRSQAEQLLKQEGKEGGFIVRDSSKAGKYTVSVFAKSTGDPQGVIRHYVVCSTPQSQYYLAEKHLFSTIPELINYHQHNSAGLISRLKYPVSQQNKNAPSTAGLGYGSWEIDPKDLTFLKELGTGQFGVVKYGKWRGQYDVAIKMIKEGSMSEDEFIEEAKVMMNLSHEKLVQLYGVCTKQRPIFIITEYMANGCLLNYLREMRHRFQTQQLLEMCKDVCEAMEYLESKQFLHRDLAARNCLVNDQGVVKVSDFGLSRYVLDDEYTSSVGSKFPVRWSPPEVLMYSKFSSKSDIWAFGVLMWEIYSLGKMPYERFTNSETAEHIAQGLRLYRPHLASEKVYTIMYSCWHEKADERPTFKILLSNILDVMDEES

For the molecule `C[C@H]1OC(=O)N2C[C@H](c3nc(-c4ccc(C(=O)Nc5cc(C(F)(F)F)ccn5)cc4)c4c(N)nccn34)CC[C@@H]12` [Example 49, 4-{8-amino-3-[(1R,6R,8aS)-1-methyl-3-oxohexahydro[1,3]oxazolo[3,4-a]pyridin-6-yl]imidazo[1,5-a]pyrazin-1-yl}-N-[4-(trifluoromethyl)pyridin-2-yl]benzamide], the results for the IC50 (in assay [1]; in the assay on HeLa cells) were 0.11 nM and 51.8 nM, respectively.
For `CN1CC(=O)N2C[C@H](c3nc(-c4ccc(C(=O)Nc5cc(C(F)(F)F)ccn5)cc4)c4c(N)nccn34)CC[C@H]2C1` [Example 50, 4-{8-amino-3-[(7R,9aS)-2-methyl-4-oxooctahydro-2H-pyrido[1,2-a]pyrazin-7-yl]imidazo[1,5-a]pyrazin-1-yl}-N-[4-(trifluoromethyl)pyridin-2-yl]benzamide], in that order: 0.26 nM and 45.1 nM.
As to `CN1CC(=O)N2C[C@@H](c3nc(-c4ccc(C(=O)Nc5cc(C(F)(F)F)ccn5)cc4)c4c(N)nccn34)CC[C@@H]2C1` [Example 51, 4-{8-amino-3-[(7S,9aR)-2-methyl-4-oxooctahydro-2H-pyrido[1,2-a]pyrazin-7-yl]imidazo[1,5-a]pyrazin-1-yl}-N-[4-(trifluoromethyl)pyridin-2-yl]benzamide], the IC50 in assay [1] was 1.6 nM; in the assay with HeLa cells, 188 nM.
For `CC1(C)OC(=O)N2C[C@H](c3nc(-c4ccc(C(=O)Nc5cc(C(F)(F)F)ccn5)cc4)c4c(N)nccn34)CC[C@H]21` [Example 52, 4-{8-amino-3-[(6R,8aS)-1,1-dimethyl-3-oxohexahydro[1,3]oxazolo[3,4-a]pyridin-6-yl]imidazo[1,5-a]pyrazin-1-yl}-N-[4-(trifluoromethyl)pyridin-2-yl]benzamide], in that order: 0.13 nM and 50.1 nM.
`COc1cc(C(=O)Nc2cc(C3CC3)ccn2)ccc1-c1nc([C@@H]2CC[C@H]3[C@@H](C)OC(=O)N3C2)n2ccnc(N)c12` [Example 53, 4-{8-amino-3-[(1R,6R,8aS)-1-methyl-3-oxohexahydro[1,3]oxazolo[3,4-a]pyridin-6-yl]imidazo[1,5-a]pyrazin-1-yl}-N-(4-cyclopropylpyridin-2-yl)-3-methoxybenzamide]: the IC50 turned out to be 0.5 nM in assay [1] and 296 nM in the assay with HeLa cells.
For `Nc1nccn2c([C@H]3CC[C@@H]4COCCN4C3)nc(-c3ccc(C(=O)Nc4cc(C(F)(F)F)ccn4)cc3)c12` [Example 56, 4-{8-amino-3-[(7S,9aR)-octahydropyrido[2,1-c][1,4]oxazin-7-yl]imidazo[1,5-a]pyrazin-1-yl}-N-[4-(trifluoromethyl)pyridin-2-yl]benzamide], in that order: 1.8 nM and 114 nM.
For `Nc1nccn2c([C@H]3CC[C@H]4CNCC(=O)N4C3)nc(-c3ccc(C(=O)Nc4cc(C(F)(F)F)ccn4)cc3)c12` [Example 57, 4-{8-amino-3-[(7S,9aS)-4-oxooctahydro-2H-pyrido[1,2-a]pyrazin-7-yl]imidazo[1,5-a]pyrazin-1-yl}-N-[4-(trifluoromethyl)pyridin-2-yl]benzamide] the same measures were 0.28 nM and no less than 10000 nM.
For `Nc1nccn2c([C@H]3CC[C@@H]4C[C@H](O)C(=O)N4C3)nc(-c3ccc(C(=O)Nc4cc(C(F)(F)F)ccn4)cc3)c12` [Example 58, 4-{8-amino-3-[(2S,6S,8aR)-2-hydroxy-3-oxooctahydroindolizin-6-yl]imidazo[1,5-a]pyrazin-1-yl}-N-[4-(trifluoromethyl)pyridin-2-yl]benzamide] the same measures were 4.1 nM and 811 nM.
With `Nc1nccn2c([C@@H]3CC[C@H]4C[C@@H](O)C(=O)N4C3)nc(-c3ccc(C(=O)Nc4cc(C(F)(F)F)ccn4)cc3)c12` [Example 59, 4-{8-amino-3-[(2R,6R,8aS)-2-hydroxy-3-oxooctahydroindolizin-6-yl]imidazo[1,5-a]pyrazin-1-yl}-N-[4-(trifluoromethyl)pyridin-2-yl]benzamide], the IC50 in assay [1] stood at 0.13 nM; in the assay with HeLa cells, 398 nM.
For `CNc1nccn2c([C@@H]3CC[C@H]4CCC(=O)N4C3)nc(-c3ccc(C(=O)Nc4cc(C(F)(F)F)ccn4)cc3)c12` [Example 60, 4-{8-(methylamino)-3-[(6R,8aS)-3-oxooctahydroindolizin-6-yl]imidazo[1,5-a]pyrazin-1-yl}-N-[4-(trifluoromethyl)pyridin-2-yl]benzamide] the same measures were 12.7 nM and 44.1 nM.
For `CCNC(=O)Nc1nccn2c([C@@H]3CC[C@H]4CCC(=O)N4C3)nc(-c3ccc(C(=O)Nc4cc(C(F)(F)F)ccn4)cc3)c12` [Example 61, 4-{8-[(ethylcarbamoyl)amino]-3-[(6R,8aS)-3-oxooctahydroindolizin-6-yl]imidazo[1,5-a]pyrazin-1-yl}-N-[4-(trifluoromethyl)pyridin-2-yl]benzamide], in that order: 17.7 nM and 19.2 nM.
For `C[C@H]1CC(=O)N2C[C@H](c3nc(-c4ccc(C(=O)Nc5cc(C(F)(F)F)ccn5)cc4)c4c(N)nccn34)CC[C@H]12` [Example 64, 4-{8-amino-3-[(1S,6R,8aR)-1-methyl-3-oxooctahydroindolizin-6-yl]imidazo[1,5-a]pyrazin-1-yl}-N-[4-(trifluoromethyl)pyridin-2-yl]benzamide] the same measures were 0.77 nM and 114 nM.
With `Nc1nccn2c([C@@H]3CC[C@H]4CN(CCO)CC(=O)N4C3)nc(-c3ccc(C(=O)Nc4cc(C(F)(F)F)ccn4)cc3)c12` [Example 66, 4-{8-amino-3-[(7R,9aS)-2-(2-hydroxyethyl)-4-oxooctahydro-2H-pyrido[1,2-a]pyrazin-7-yl]imidazo[1,5-a]pyrazin-1-yl}-N-[4-(trifluoromethyl)pyridin-2-yl]benzamide], the IC50 in assay [1] worked out at 0.13 nM; with HeLa cells it was 206 nM.
For `Nc1nccn2c([C@H]3CC[C@@H]4C[C@@H](O)C(=O)N4C3)nc(-c3ccc(C(=O)Nc4cc(C(F)(F)F)ccn4)cc3)c12` [Example 67, 4-{8-amino-3-[(2R,6S,8aR)-2-hydroxy-3-oxooctahydroindolizin-6-yl]imidazo[1,5-a]pyrazin-1-yl}-N-[4-(trifluoromethyl)pyridin-2-yl]benzamide] the same measures were 3.7 nM and 410 nM.
On to `Nc1nccn2c([C@@H]3CC[C@H]4C[C@H](O)C(=O)N4C3)nc(-c3ccc(C(=O)Nc4cc(C(F)(F)F)ccn4)cc3)c12` [Example 68, 4-{8-amino-3-[(2S,6R,8aS)-2-hydroxy-3-oxooctahydroindolizin-6-yl]imidazo[1,5-a]pyrazin-1-yl}-N-[4-(trifluoromethyl)pyridin-2-yl]benzamide], for which the IC50 in assay [1] turned out to be 0.081 nM; in the assay with HeLa cells, 430 nM.
Turning to `CCOc1cc(C(=O)Nc2cc(C(F)(F)F)ccn2)ccc1-c1nc([C@@H]2CC[C@H]3CCC(=O)N3C2)n2ccnc(N)c12` [Example 69, 4-{8-amino-3-[(6R,8aS)-3-oxooctahydroindolizin-6-yl]imidazo[1,5-a]pyrazin-1-yl}-3-ethoxy-N-[4-(trifluoromethyl)pyridin-2-yl]benzamide], the IC50 came out at 0.16 nM in assay [1] and 1440 nM with HeLa cells.
